Entries after “also recorded” stand apart in the source; their conditions may differ.
How the values were obtained:
[1] = Strain-modulated release of SN-38 from mechanoresponsive drug delivery device (fluorimetry); assay type: physicochemical; details: for release of SN-38 from device: PBS or RPMI with 10% v/v fetal bovine serum
Description: SN-38 from release media was quantified by mixing one (1) part release medium (containing drug) in three (3) parts 20 mM borate buffer (pH=9), which converts SN-38 to the carboxylate form. Fluorescence was detected by fluorimetry at an excitation of 380 nm and emission of 550 nm, as previously described (Yohe, J Controlled Release 2012, 162). (FIG. 42)
A drug delivery device with incorporated SN-38 was fabricated in accordance with Example 2, above. The ends of the material were placed between two pieces of foam tape and further secured by applying glue to the ends in contact with the foam tape. The ends were then placed between the grips of a tensile tester machine (Instron 5848 Microtester) and the sample length between the grips was recorded. A water bath was placed under the sample arms, and the drug delivery device was submerged beneath 300 mL of phosphate-buffered saline (PBS) or cell media, RPMI with 10% v/v fetal bovine serum. A magnetic stir bar was also added to the bath to ensure thorough mixing during the study. The Instron software was then programmed to extend the sample arms at a constant rate of 2 mm/s until a travel distance equivalent to thirty percent of the initial sample length was reached (corresponding to 30% strain), or equivalent to the entire initial sample length was reached (corresponding to 100% strain). Once the device was stretched, aliquots of release medium were sampled at predetermined time points. The percentage of SN-38 released into the surrounding aqueous environment was calculated using fluorimetry, as described in Example 31. Devices were also placed on the tensile tester, but in this instance they were not stretched (0% strain), to serve as control experiments. Release of the chemotherapy agent from devices subjected to 100% strain and more moderate from devices subjected to 30% strain. […] (FIG. 43)

OE33, oesophageal cancer = test: OE33 cell viability with SN-38 release aliquots (MTS Assay); assay type: cell-based; details: release aliquots in RPMI with 10% fetal bovine serum incubated 96 hours
Excerpt: By altering the amount of strain, the rate of SN-38 release can be controlled in order to provide a range of concentrations at fixed time points. […] The concentration of SN-38 can be either lower or higher than the IC50 value such that a similar curve can be created using force and/or strain, rather than, or in addition to, concentration. […] Because SN-38 is a toxic chemotherapeutic drug, the amount of SN-38 released correlates with cell viability. […] (FIG. 44)

[2] = Tension-triggered release of cisplatin from mechanoresponsive drug delivery device (atomic absorption); assay type: physicochemical; details: for release of cisplatin from device: PBS
Excerpt: The amount of cisplatin released from the drug delivery system into the surrounding aqueous environment was quantified through flameless atomic absorption spectroscopy (also known as graphite furnace atomic absorption or electrothermal absorption (Varian AA240Z Atomic Absorption)). The platinum atom has a strong absorbance band at 265.9 nm, and was used for detecting the presence of platinum (the major component of the anticancer agent cisplatin) in the release medium. A standard curve was first created, and aliquots (sampled at different timepoints) from the release medium with unknown cisplatin concentrations were determined from this standard curve. The concentration values were then converted to amount (mass) of cisplatin released by multiplying the concentration by the total volume of solution into which the agent released. The amount of cisplatin actually released was then divided by the amount of cisplatin initially loaded into the device, to get a percentage of cisplatin released as a function of time.
A drug delivery device with incorporated cisplatin was fabricated in accordance with Example 1 above. The ends of the material were placed between two pieces of foam tape and further secured by applying glue to the ends in contact with the foam tape. The ends were then placed between the grips of a tensile tester machine (Instron 5848 Microtester) and the sample length between the grips was recorded. A water bath was placed under the sample arms, and the drug delivery device was submerged beneath 300 mL of phosphate-buffered saline (PBS). A magnetic stir bar was also added to the bath to ensure thorough mixing during the study. The Instron software was then programmed to extend the sample arms at a constant rate of 2 mm/s until a travel distance equivalent to the initial sample length was reached (corresponding to 100% strain). […] The percentage of cisplatin released into the surrounding aqueous environment was calculated using flameless atomic absorption spectroscopy, as described in Example 16. […]

OE33 cells = test: OE33 cell viability with cisplatin release aliquots (MTS Assay); assay type: cell-based; details: release aliquots incubated 72 hours with OE33 cells
Description: Aliquots from release (FIG. 39) were incubated for 72 hours with OE33 cells, an oesophageal cell line. Cell viability from incubation of release aliquots over two hours were determined by MTS Assay, left. Cell viability at the 30-minute release at various strain magnitude are shown, right (p<0.05 for 30%, 100% when compared to 0%).
Cisplatin is used in the treatment of esophageal cancer. […] They used an esophageal cell line, OE33 (Sigma), to show the efficacy of cisplatin released from the tension-modulated drug delivery device, and that a dose-response curve can be generated using force and/or strain as the means to alter the dose. […] By altering the amount of force, the rate of cisplatin release can be controlled in order to provide a range of concentrations at fixed time points. The concentration of cisplatin can be either lower or higher than the IC50 value such that a similar curve may be created using force and/or strain on the x-axis, rather than, or in addition to, concentration.
Cisplatin can be loaded into these systems as described in Example 14. Cisplatin can be used to achieve dose-dependent tumor cell death, and also strain-dependent cell death. A strain-dependent release of cisplatin, a small hydrophilic drug molecule, can be seen in FIG. 39. Because cisplatin is a cytotoxic chemotherapeutic drug, the amount of cisplatin released correlates with cell viability (FIG. 40).

OE33 = details: 72 hours of incubation; read-out: IC50 of cisplatin with OE33; cited from earlier work
[3] = Tension-triggered release of FITC-BSA from mechanoresponsive drug delivery device (fluorescence); assay type: physicochemical; details: PBS with 10% serum
Excerpt: The amount of fluorescein isothiocyanate-labeled bovine serum albumin (FITC-BSA) released from the drug delivery system into the surrounding aqueous environment was quantified through fluorescence spectrophotometry. The fluorescein isothiocyanate is a fluorophore that is maximally excited around 495 nm and maximally emits at around 520 nm. The fluorescence intensity emitted at 520 nm was used to construct a standard curve of fluorescence versus FITC-BSA concentration. Unknown FITC-BSA concentrations in the release medium were calculated from this standard curve. The concentration values were then converted to amount (mass) of FITC-BSA released by multiplying by the concentration values by the total volume of solution into which the protein released. The amount of FITC-BSA actually released was then divided by the amount of FITC-BSA initially loaded into the device, to get a percentage of protein released as a function of time. (FIGS. 19-21)
A drug delivery device with incorporated fluorescein isothiocyanate-labeled bovine serum albumin (FITC-BSA) was fabricated in accordance with Example 1 above. The ends of the material were placed between two pieces of foam tape and further secured by applying glue to the ends in contact with the foam tape. The ends were then placed between the grips of a tensile tester machine (Instron 5848 Microtester) and the sample length between the grips was recorded. A water bath was placed under the sample arms, and the drug delivery device was submerged beneath 300 mL of phosphate-buffered saline (PBS) with 10% serum (fetal bovine serum). A magnetic stir bar was also added to the bath to ensure thorough mixing during the study. The Instron software was then programmed to extend the sample arms at a constant rate of 2 mm/s until a travel distance equivalent to the initial sample length was reached (corresponding to 100% strain). Once the device was stretched, aliquots of release medium were sampled at predetermined time points. The percentage of protein released into the surrounding aqueous environment was calculated using fluorescence spectrophotometry, as described in Example 13 above. Devices were also placed on the tensile tester, but in this instance they were not stretched (0% strain), to serve as control experiments. Release of the fluorescent protein from devices subjected to strain was rapid, and was achieved only under the application of strain. […] (FIG. 24)
A drug delivery device with incorporated fluorescein isothiocyanate-labeled bovine serum albumin (FITC-BSA) was fabricated in accordance with Example 1 above. The coating was electrosprayed using a tip-to-collector distance of 15 cm. The ends of the material were placed between two pieces of foam tape and further secured by applying glue to the ends in contact with the foam tape. The ends were then placed between the grips of a tensile tester machine (Instron 5848 Microtester) and the sample length between the grips was recorded. A water bath was placed under the sample arms, and the drug delivery device was submerged beneath 300 mL of phosphate-buffered saline (PBS) with 10% serum (fetal bovine serum). A magnetic stir bar was also added to the bath to ensure thorough mixing during the study. The Instron software was then programmed to extend the sample arms at a constant rate of 2 mm/s until a travel distance equivalent to half of the initial sample length was reached (corresponding to 50% strain), or equivalent to the entire initial sample length was reached (corresponding to 100% strain). Once the device was stretched, aliquots of release medium were sampled at predetermined time points. The percentage of protein released into the surrounding aqueous environment was calculated using fluorescence spectrophotometry, as described in Example 13 above. Devices were also placed on the tensile tester, but in this instance they were not stretched (0% strain) to serve as a control experiment. […]

[4] = tested on: type I collagen in fibroblasts; details: cited from earlier work

Compound: CCc1c2c(nc3ccc(O)cc13)-c1cc3c(c(=O)n1C2)COC(=O)[C@]3(O)CC [SN-38, 7-ethyl-10-hydroxycamptothecin]
- dependence of SN-38 release on strain [1]: strain-dependent
- release of SN-38 from device ([1]; 0% strain): did not release appreciable amounts of drug
- release of SN-38 from device ([1]; 30% strain): more moderate
- cell viability with released SN-38 (OE33, oesophageal cancer): deliver an efficacious amount of SN-38 to change the cell viability; also recorded: significant decreases in viability with increasing strain

Compound: N.N.[Cl][Pt][Cl] [cisplatin, Cis-diamminedichloroplatinum(II)]
- release of cisplatin from device ([2]; 100% strain): rapid release
- dependence of cisplatin release on strain ([2]; cell media solution (RPMI) with fetal bovine serum (10% v/v)): strain-dependent; also recorded: tension-dependent
- release of cisplatin from device ([2]; no applied tension (0% strain)): did not release appreciable amounts of drug; also recorded: minimal release
- cell viability with released cisplatin (OE33 cells): deliver an efficacious amount of cisplatin to change the cell viability
- IC50 (OE33): 2170 nM

Compound: FITC-BSA: Fluorescein isothiocyanate-labeled bovine serum albumin, model protein
- release of FITC-BSA from device ([3]; 0% strain, dry coating, tip-to-collector distance 15 cm): did not release appreciable amounts of protein; also recorded: minimal release
- release of FITC-BSA from device ([3]; 50% strain, dry coating, tip-to-collector distance 15 cm): more moderate; also recorded: modest release profile
- release of FITC-BSA from device ([3]; 100% strain): rapid release
- release of FITC-BSA from device ([3]; 100% strain, listed as protein): rapid drug release
- release of FITC-BSA from device ([3]; 100% strain, dry coating, tip-to-collector distance 15 cm): most rapid; also recorded: rapid release
- release of FITC-BSA from device ([3]; no applied tension (0% strain)): did not release appreciable amounts of protein; also recorded: minimal release
- release of FITC-BSA from device ([3]; no applied tension (0% strain), listed as protein): did not release appreciable amounts of drug

Compound: TNF-α
- effect on synthesis of type I collagen [4]: inhibit synthesis of type I collagen

From patent publication US11266768B2, “Stretch release drug delivery materials” (TRUSTEES OF BOSTON UNIVERSITY, priority 2013, dated 2022)
